Entries after “also recorded” stand apart in the source; their conditions may differ. Where a name gives a salt, the structure may show the parent alone. Read-outs that look alike come from different tables or passages of the source.
Assays:
[1] = Shafer et al., Anesthesiology 1991; cited from earlier work
[2] = cited from earlier work; for dosing interval: Hemstrom et al.
[3] = tested on: Sprague-Dawley rats (antinociceptive threshold); assay: Rat cold ethanol tail-flick test, pharmacodynamic study of nalbuphine arachidate; assay type: in vivo; conditions: for analgesic effect (significance): FIGS. 21 and 22
[4] = tested on: humans (analgesia); assay: Estimate of human analgesic duration and dose from rat/human dose ratio; conditions: 1.56 μM/kg i.m., calculated from rat
[5] = tested on: Sprague-Dawley rats (nociceptive threshold); assay type: in vivo, rat
[6] = plasma half time; FIG. 18
[7] = tested on: patients (analgesia); conditions: 10 mg/65 kg (0.154 mg/kg) i.m., 65-kg patient; cited from earlier work
[8] = tested on: humans; assay: Analgesic effect for human intramuscular injection; assay type: in vivo; conditions: human i.m.
[9] = Water solubility; assay type: physicochemical
[10] = 25 micromole/kg i.m., prodrugs in sesame oil, Table 2 / FIG. 17
[11] = 25 micromole/kg i.m., Table 2 / FIG. 17

CO[C@]12CC[C@@]3(C[C@@H]1[C@](C)(O)C(C)(C)C)[C@H]1Cc4ccc(O)c5c4[C@@]3(CCN1CC1CC1)[C@H]2O5 [buprenorphine]
dose needed to elicit the same analgesic effect [1]: 0.3 mg

Oc1ccc2c(c1)[C@@]13CCCC[C@@]1(O)[C@@H](C2)N(CC1CCC1)CC3 [butorphanol]
dose needed to elicit the same analgesic effect [1]: 2 mg

CCCCCCCCCC(=O)OC1(c2ccc(Cl)cc2)CCN(CCCC(=O)c2ccc(F)cc2)CC1 [haloperidol decanoate]
dosing interval [2]: 1-2 times a month

O=C(CCCN1CCC(O)(c2ccc(Cl)cc2)CC1)c1ccc(F)cc1 [haloperidol]
dosing interval [2]: 2-4 times a day

CN1CC[C@]23c4c5ccc(O)c4O[C@H]2[C@@H](O)C=C[C@H]3[C@H]1C5 [morphine]
dose needed to elicit the same analgesic effect [1]: 10 mg

CCCCCCCCCCCCCCCCCCCC(=O)Oc1ccc2c3c1OC1C(O)CCC4(O)C(C2)N(CC2CCC2)CCC314 (stereo not shown) [nalbuphine arachidate]
duration of analgesic effect in words ([3]; 25 μM/kg i.m., rats): longer than that of nalbuphine HCl; also recorded: long duration of analgesic effect; also recorded: very long duration of analgesic effect | duration of analgesic effect ([3]; 25 μM/kg i.m., sesame oil suspension, rats): 4 to 5 days | analgesic effect (significance) ([3]; 25 μM/kg i.m.): significant analgesic effects | estimated analgesic duration in humans [4]: 4 to 5 days

O=C(Oc1ccc2c3c1OC1C(O)CCC4(O)C(C2)N(CC2CCC2)CCC314)c1ccccc1 (stereo not shown) [nalbuphine benzoate]
50% analgesic effect (time) [5, 10]: 3.5 days | 20% analgesic effect (time) ([5]; 25 micromole/kg i.m., Table 2): 4.0 D | 10% analgesic effect (time) [5, 11]: 4.0 D

CCCCCCCCCC(=O)Oc1ccc2c3c1O[C@H]1[C@@H](O)CC[C@@]4(O)[C@@H](C2)N(CC2CCC2)CC[C@]314 [nalbuphine decanoate]
increase of duration over nalbuphine hydrochloride [6]: 30 times | 50% analgesic effect (time) [5, 10]: 6.7 days | 20% analgesic effect (time) ([5]; 25 micromole/kg i.m., Table 2): 7.5 D | 10% analgesic effect (time) [5, 11]: 8.2 D

CCCCCCC(=O)Oc1ccc2c3c1OC1C(O)CCC4(O)C(C2)N(CC2CCC2)CCC314 (stereo not shown) [nalbuphine enanthate]
50% analgesic effect (time) [5, 10]: 3.9 days | 20% analgesic effect (time) ([5]; 25 micromole/kg i.m., Table 2): 3.4 D | 10% analgesic effect (time) [5, 11]: 3.6 D

Oc1ccc2c3c1O[C@H]1[C@@H](O)CC[C@@]4(O)[C@@H](C2)N(CC2CCC2)CC[C@]314 [nalbuphine hydrochloride, reference compound]
analgesic duration (Discussion) ([3]; 25 μM/kg (9.86 mg/kg) i.m., rats): about 2 hours | duration of analgesic effect ([3]; 25 μM/kg i.m., in 0.9% saline, rats): 0.17 days | analgesic effect (significance) ([3]; 25 μM/kg i.m.): significant analgesic effects | analgesic duration, clinical [7]: 2 to 3 h | 10% analgesic effect (time), human [8]: 5.0 h | 20% analgesic effect (time), human [8]: 4.4 h | 50% analgesic effect (time), human ([8]; 0.8 nmole/kg as printed): 2.5 h | 10% analgesic effect (time) ([5]; rat, in vivo): 5.0 H | 10% analgesic effect (time), rat ([5]; rat, in vivo): 2.4 h | 10% analgesic effect (time), text ([5]; rat, in vivo): 12 h | 20% analgesic effect (time) ([5]; rat, in vivo): 4.4 H | 20% analgesic effect (time), rat ([5]; rat, in vivo): 2.1 h | 50% analgesic effect (time) ([5]; rat, in vivo): 2.5 | 50% analgesic effect (time), rat ([5]; rat, in vivo): 1.1 h

CC(C)(C)C(=O)Oc1ccc2c3c1OC1C(O)CCC4(O)C(C2)N(CC2CCC2)CCC314 (stereo not shown) [nalbuphine pivalate]
50% analgesic effect (time) [5, 10]: 3.2 days | 20% analgesic effect (time) ([5]; 25 micromole/kg i.m., Table 2): 3.6 D | 10% analgesic effect (time) [5, 11]: 3.8 D

CCC(=O)Oc1ccc2c3c1OC1C(O)CCC4(O)C(C2)N(CC2CCC2)CCC314 (stereo not shown) [nalbuphine propionate monohydrochloride]
water solubility [9]: water soluble

CCC(=O)Oc1ccc2c3c1OC1C(O)CCC4(O)C(C2)N(CC2CCC2)CCC314 (stereo not shown) [nalbuphine propionate]
50% analgesic effect (time) [5, 10]: 0.417 days | 10% analgesic effect (time) ([5]; 25 micromole/kg i.m., Table 2): 12 H | 20% analgesic effect (time) ([5]; 25 micromole/kg i.m., Table 2): 11 H

Oc1ccc2c3c1O[C@H]1[C@@H](O)CC[C@@]4(O)[C@@H](C2)N(CC2CCC2)CC[C@]314 [nalbuphine]
amount of released nalbuphine free base (FIG. 15) (between 17 and 28 hours, p<0.05): less in the preparations with sesame oil than with peanut oil ester and the control | release times (FIG. 16) (nalbuphine base versus hydrochloride): significantly increased

C#C[C@]1(OC(=O)CCCCCC)CC[C@H]2[C@@H]3CCC4=CC(=O)CC[C@@H]4[C@H]3CC[C@@]21C [northisterone enanthate]
dosing interval in words ([2]; Joshi et al.): once every 2 months
